Results from article PMC11739599 (Nature Communications, 2025).
pIC50: −log10 of the molar value.

How the values were obtained:
Assay in all cases: KINOMEscan panel
Format in all cases: biochemical
[1] = target: RSK3 (Homo sapiens, UniProt Q15349)
[2] = target: RSK4 (Homo sapiens, UniProt Q9UK32)
[3] = target: RSK1 (ribosomal protein S6 kinase A1) (Homo sapiens, UniProt Q15418)
[4] = target: RSK2 (Homo sapiens, UniProt P51812)
Chain of RSK2 (P51812 whole entry): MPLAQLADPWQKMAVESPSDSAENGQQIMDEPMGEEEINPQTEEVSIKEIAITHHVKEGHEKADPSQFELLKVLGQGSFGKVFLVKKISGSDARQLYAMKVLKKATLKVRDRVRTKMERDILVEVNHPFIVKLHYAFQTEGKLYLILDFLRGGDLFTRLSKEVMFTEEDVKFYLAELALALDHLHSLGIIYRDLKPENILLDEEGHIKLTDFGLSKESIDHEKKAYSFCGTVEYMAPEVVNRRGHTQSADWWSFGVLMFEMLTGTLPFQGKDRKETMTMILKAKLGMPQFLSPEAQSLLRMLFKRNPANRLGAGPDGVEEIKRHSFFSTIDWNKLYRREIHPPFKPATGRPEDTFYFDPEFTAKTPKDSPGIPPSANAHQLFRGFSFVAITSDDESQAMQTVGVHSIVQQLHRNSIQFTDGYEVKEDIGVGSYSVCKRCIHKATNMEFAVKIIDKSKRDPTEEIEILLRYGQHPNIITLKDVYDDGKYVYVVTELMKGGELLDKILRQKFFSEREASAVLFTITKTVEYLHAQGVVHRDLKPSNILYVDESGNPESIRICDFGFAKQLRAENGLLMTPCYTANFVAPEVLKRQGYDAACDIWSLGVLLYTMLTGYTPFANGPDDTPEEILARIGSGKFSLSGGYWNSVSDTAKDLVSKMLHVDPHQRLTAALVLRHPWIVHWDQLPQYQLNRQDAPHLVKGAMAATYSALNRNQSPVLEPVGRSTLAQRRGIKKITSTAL

Chain of RSK3 (Q15349 whole entry): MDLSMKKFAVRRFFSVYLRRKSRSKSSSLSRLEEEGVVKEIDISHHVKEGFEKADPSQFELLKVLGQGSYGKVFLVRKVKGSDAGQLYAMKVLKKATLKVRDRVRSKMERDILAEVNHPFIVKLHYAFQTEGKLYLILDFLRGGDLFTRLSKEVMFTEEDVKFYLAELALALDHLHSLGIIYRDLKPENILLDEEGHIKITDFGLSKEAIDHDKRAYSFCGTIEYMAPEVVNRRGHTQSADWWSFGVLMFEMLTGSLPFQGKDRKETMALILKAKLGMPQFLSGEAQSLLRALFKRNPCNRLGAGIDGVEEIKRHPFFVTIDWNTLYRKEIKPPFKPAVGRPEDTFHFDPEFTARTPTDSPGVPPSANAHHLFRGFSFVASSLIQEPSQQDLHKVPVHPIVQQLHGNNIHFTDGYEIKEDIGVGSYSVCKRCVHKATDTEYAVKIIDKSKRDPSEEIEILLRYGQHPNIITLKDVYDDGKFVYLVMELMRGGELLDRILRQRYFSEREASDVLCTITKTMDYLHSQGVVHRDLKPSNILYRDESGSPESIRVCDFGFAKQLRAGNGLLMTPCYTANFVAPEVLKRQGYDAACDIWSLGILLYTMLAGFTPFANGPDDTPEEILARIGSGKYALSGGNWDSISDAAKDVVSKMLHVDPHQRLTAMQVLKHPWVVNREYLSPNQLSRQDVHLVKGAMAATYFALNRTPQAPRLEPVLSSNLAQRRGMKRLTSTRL
Chain of RSK1 (ribosomal protein S6 kinase A1) (Q15418 whole entry): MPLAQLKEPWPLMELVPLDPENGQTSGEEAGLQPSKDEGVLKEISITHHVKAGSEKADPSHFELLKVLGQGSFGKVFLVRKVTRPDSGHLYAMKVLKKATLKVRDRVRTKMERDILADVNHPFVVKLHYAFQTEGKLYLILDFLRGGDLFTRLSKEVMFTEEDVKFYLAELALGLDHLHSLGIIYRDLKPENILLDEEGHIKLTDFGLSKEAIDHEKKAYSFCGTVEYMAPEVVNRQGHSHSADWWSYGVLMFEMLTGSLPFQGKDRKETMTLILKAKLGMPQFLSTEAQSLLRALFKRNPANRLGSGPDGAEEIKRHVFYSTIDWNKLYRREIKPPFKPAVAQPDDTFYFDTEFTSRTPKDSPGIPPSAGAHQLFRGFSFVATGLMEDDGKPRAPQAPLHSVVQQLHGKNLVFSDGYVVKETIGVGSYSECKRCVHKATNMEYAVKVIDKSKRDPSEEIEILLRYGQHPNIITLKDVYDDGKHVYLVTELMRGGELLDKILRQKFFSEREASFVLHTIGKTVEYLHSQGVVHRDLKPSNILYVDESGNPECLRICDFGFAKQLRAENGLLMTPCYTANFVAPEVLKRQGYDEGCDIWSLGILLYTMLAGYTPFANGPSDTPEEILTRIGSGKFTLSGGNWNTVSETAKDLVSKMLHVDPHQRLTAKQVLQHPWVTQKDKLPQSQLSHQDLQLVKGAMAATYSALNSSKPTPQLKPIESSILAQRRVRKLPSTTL
Chain of RSK4 (Q9UK32 whole entry): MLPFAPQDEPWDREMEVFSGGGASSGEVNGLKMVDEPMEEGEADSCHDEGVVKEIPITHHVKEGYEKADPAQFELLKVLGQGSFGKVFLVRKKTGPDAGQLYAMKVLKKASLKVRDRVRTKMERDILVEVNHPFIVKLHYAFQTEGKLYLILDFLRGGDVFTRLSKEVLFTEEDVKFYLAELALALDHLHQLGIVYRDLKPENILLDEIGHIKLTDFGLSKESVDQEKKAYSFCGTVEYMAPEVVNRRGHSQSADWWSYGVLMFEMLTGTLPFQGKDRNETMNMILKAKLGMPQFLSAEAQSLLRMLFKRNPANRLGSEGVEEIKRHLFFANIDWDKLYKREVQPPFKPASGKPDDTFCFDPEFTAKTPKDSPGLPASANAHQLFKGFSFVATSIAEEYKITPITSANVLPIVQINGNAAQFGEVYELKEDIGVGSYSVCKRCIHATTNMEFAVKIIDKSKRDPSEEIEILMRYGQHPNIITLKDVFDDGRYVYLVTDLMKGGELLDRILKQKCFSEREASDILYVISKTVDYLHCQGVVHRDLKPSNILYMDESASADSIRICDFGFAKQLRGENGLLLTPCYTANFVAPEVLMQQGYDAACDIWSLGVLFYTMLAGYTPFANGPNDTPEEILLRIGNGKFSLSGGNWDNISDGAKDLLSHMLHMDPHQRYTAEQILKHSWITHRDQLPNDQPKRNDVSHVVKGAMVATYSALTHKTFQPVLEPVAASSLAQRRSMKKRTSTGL

- pIC50 [1]: 9.05
- pIC50 [2]: 8.70
- pIC50 [3]: 8.70
- pIC50 [4]: 9.15
Substance: PMD-026
